For series [1], the system named is Pharbitis purpurea (morningglory, PHBPU). The series is described as follows: Greenhouse post-emergence phytotoxicity, morningglory. The series is classed as in vivo. Conditions: scale 0 to 100. The source says: (§1) The experimental period extended over 2 to 4 weeks.
Series [2] has as its system Chenopodium album (pigweed, CHEAL). As to the kind of experiment: Greenhouse post-emergence phytotoxicity, pigweed. The series is classed as in vivo. Conditions: Table 2b, application rate 0.0313 kg/ha, scale 0 to 100.
Excerpt: as §1

Series [3] relates to Oryza sativa (rice, ORYSA). As to the kind of experiment: Greenhouse post-emergence phytotoxicity, rice. Conditions: Table 2a.
Experimental: The active ingredients were prepared separately or jointly as a 10% emulsion in a mixture of 85% by weight of cyclohexanone, 5% by weight of Nekanil® LN (Lutensol® AP6, wetter with emulsifying and dispersing action based on ethoxylated alkylphenols) and 10% by weight of Wettol® EM (nonionic emulsifier based on ethoxylated castor oil) and diluted with water to give the desired concentration.
The culture containers used were plastic pots containing loamy sand with approximately 3.0% humus as substrate. The seeds of the test plants were sown separately for each species.
The test plants were grown separately as seedlings and transplanted into the experimental containers a few days before the treatment.
Depending on the species, the plants were kept at temperatures of from 10 to 25° C. or 20 to 35° C. The experimental period extended over 2 to 4 weeks. During this time, the plants were tended, and their response to the individual treatments was evaluated.
The phytotoxicity was evaluated using a scale of from 0 to 100. In this context, 100 means complete destruction of at least the aerial parts, and 0 means no damage or normal course of growth.
For series [4], the system named is Triticum aestivum (spring wheat, TRZAS). The series is described as follows: Greenhouse post-emergence phytotoxicity, spring wheat. Type of series: in vivo. Conditions: Table 2b, scale 0 to 100.
Excerpt: as §1

The test system of series [5] is Rice cv. “Koshihikari”. As to the kind of experiment: Effect on plant growth: plant height (stunting) of rice clumps after seedbox spray and transplanting into the field. The series is classed as in vivo. Conditions: 200 g of active ingredient A per hectare; three weeks after the treatment. The source says:
Rice cv. “Koshihikari” was sown in a seedbox and grown for 24 days under controlled warm and moist conditions in controlled-environment cabinets and in the greenhouse. Two days before the rice was transplanted into the field, each of the seedboxes was sprayed to runoff point with preparations of the active ingredient in the concentrations mentioned hereinbelow in the form of an aqueous suspension made with a stock solution consisting of 10% active ingredient, 85% cyclohexanone and 5% emulsifier. The seedboxes were subsequently cultured in the greenhouse for a further 2 days until the rice was manually transplanted into the field at a rate of 5 clumps per m^2.
Three weeks after the treatment, the plant height of the rice clumps was measured and compared with untreated rice plants. The extent of plant stunting is a measure for the plant-damaging effect of substances on the root system.

The subject of series [6] is Echinochloa crus-galli (barnyardgrass, ECHCG). As to the kind of experiment: Greenhouse post-emergence phytotoxicity, barnyardgrass. Type of series: in vivo. Conditions: Table 2a, application rate 0.0039 kg/ha, scale 0 to 100.
Excerpt: as §1

With `FC(F)(F)c1ccc(-c2nccc(Oc3cccc(C(F)(F)F)c3)n2)cc1` [C, 4-(3-trifluoromethylphenoxy)-2-(4-trifluoromethylphenyl)pyrimidine], the “Pytotoxicity PHBPU” value worked out at 98 in series [1] (Table 2a, application rate 0.0078 kg/ha); 98 in series [1] (Table 2a, application rate 0.0156 kg/ha); 98 in series [1] (Table 2b, application rate 0.0078 kg/ha); 98 in series [1] (Table 2b, application rate 0.0156 kg/ha). In addition, the “Pytotoxicity CHEAL” value in series [2] was 98. Moreover, the “Pytotoxicity ORYSA” value in series [3] (application rate 0.0078 kg/ha, scale 0 to 100) is reported as 10; in series [3] (application rate 0.0156 kg/ha, scale 0 to 100) it was 10. Besides, the “Pytotoxicity TRZAS” value was found to be 20 in series [4] (application rate 0.0078 kg/ha), 25 in series [4] (application rate 0.0156 kg/ha) and 30 in series [4] (application rate 0.0313 kg/ha).
Regarding `C[C@H](Nc1c(-c2c(F)cc(F)cc2F)c(Cl)nc2ncnn12)C(F)(F)F` [A, [5-chloro-6-(2,4,6-trifluorophenyl)-[1,2,4]triazolo[1,5-a]pyrimidin-7-yl]-((S)-2,2,2-trifluoro-1-methylethyl)amine], the “stunting (plant height compared with untreated rice plants)” value in series [5] is given as 15%.
As for `Cc1c(C(=O)c2cnn(C)c2O)ccc(S(C)(=O)=O)c1C1=NOCC1` [B, [3-(4,5-dihydroisoxazol-3-yl)-4-methane-sulfonyl-2-methylphenyl]-(5-hydroxy-1-methyl-1H-pyrazol-4-yl)-methanone], the “Pytotoxicity ECHCG” value in series [6] amounted to 90. Besides, the “Pytotoxicity ORYSA” value in series [3] (application rate 0.0039 kg/ha, scale 0 (no damage) to 100 (complete destruction)) amounted to 20.

Source of the values: US20050164882A1, “Method for increasing the resistance of plants to the phytotoxicity of agrochemicals” (priority 2002, published 2005).
